Results as given in patent US20140256618A1, “Haprolid and Derivatives Thereof as Inhibitors of HCV” (Twincore Zentrum Fuer Experimentelle und Klinische …, priority 2011, published 2014).

Legend:
[1] = test system: HCV; assay: microbe, parasite or virus in culture; type: cell-based; details: Hepatitis C virus, read-out: antiviral activity EC50
[2] = test system: lipoprotein secretion (ApoB/E), albumin; assay: Secretion of lipoproteins (ApoB/E) or albumin; type: cell-based; details: FIG. 6
From the text: (§1) Moreover, an influence of the compound on the steps leading to assembly and release of infectious HCV particles has been shown. Total production of infectious virus particles was reduced about 3-fold (FIG. 5c). […] However, this was not caused by an influence of the drug on lipoprotein secretion (ApoB/E, FIG. 6), on which HCV secretion strongly depends, nor a general influence on the secretory capacity of the cell as shown for albumin (FIG. 6).

[3] = test system: retroviral particles pseudotyped with the glycoproteins of either HCV, VSV or MLV
[4] = test system: HCV RNA replication; assay: Subgenomic HCV replicon assay (influence on replication); type: cell-based, Hepatitis C virus; details: subgenomic HCV replicon system, at non-toxic concentrations, FIG. 2
Experimental: Haprolid has been identified as a potent inhibitor of HCV. Experiments confirmed its antiviral activity at nanomolar concentrations (EC50<6 nM) with toxicity in low micromolar ranges (TC50˜0.1 μM) (FIG. 1). […] Employing HCVTCP, influences on HCV RNA replication and virus entry are quantified.

[5] = test system: infectious HCV particles; assay: Influence on assembly and/or release of infectious HCV particles; type: cell-based, Hepatitis C virus
From the text: as §1
FIGS. 5a-c show the influence on assembly and/or release.

[6] = test system: HCVTCP; assay: Preincubation experiment in the context of HCV TCP infection; type: cell-based, Hepatitis C virus; details: HCVTCP system, FIG. 3
[7] = test system: Huh7-Lunet-hCD81-Gluc cells; assay: Cell viability by G-Luc activity in the whole life cycle assay; details: FIG. 1

With `COC(C)CCCC1CC/C(C)=C\CC(=O)NC(Cc2ccccc2)C(=O)N(C)CC(=O)N(C)C(CC(C)C)C(=O)N2CCCC2C(=O)O1` (stereo not drawn) [Haprolid] the EC50 [1] was less than 6 nM, the “influence on secretion of albumin” value [2] was “no influence” and the “influence on secretion of lipoproteins (ApoB/E)” value [2] was “no influence”. The “decrease of infectivity of pseudotyped retroviral particles” value [3] was 100-1000 fold, the “reduction of HCV RNA replication” value [4] was 5 fold and the “reduction of intracellular virus titer” value ([5]; FIG. 5a) was 100 fold. For the same molecule, the “reduction of total production of infectious virus particles” value ([5]; FIG. 5c) was “about 3 fold”, the “effect of preincubation of cells or of virus compared with addition of compound during infection” value [6] was “only preincubation of the cells, but not of the virus resulted in a comparable effect” and the “toxicity TC50” value [7] was roughly 100 nM.
